Measured values reported in US20220008296A1, “CAPSULE FORMULATION” (Capsugel Belgium NV, priority 2014, published 2022).

assay: acid resistance experiment: litmus colour inside oil-filled, band-sealed DRcaps capsule submerged in acid; format: physicochemical; set-up: key to Result (color): −: almost all red/unsuitable; +: about half red/passable; ++: all blue/excellent; details: 120 minutes after submersion in JP first liquid pH1.2, 37°; Example 2
Experimental: The fine powder of a litmus reagent that changes to red in response to acid (blue, Wako Pure Chemical Industries Ltd. high grade), used as an active ingredient, is dispersed or dissolved in 0.2% by weight each of MCT, which is an edible oil (medium chain fatty acid triglyceride, coconad MT (made by Kao Co.) and glycerin, which is a water-based edible additive (made by Kao Co.) (dissolves very readily in water, comparative example). Then, 300 μL each of this solution is loaded into the separated body portion of an acid resistant hard capsule made by Capsugel (DRcaps (trademark), size no. 2, transparent no color). Then, a capsule formulation is prepared by sealing the fitted part of the cap portion and the body portion of the hard capsule using a band sealing solution (see FIG. 1). It should be noted that the band sealing solution is produced based on the information described in International Application PCT/US2013/041838 (application date May 20, 2013) (title of invention “ACID RESISTANT BANDING SOLUTION FOR TWO PIECE HARD CAPSULES”) wherein US Patent Application No. 61/707,135 (application date: Sep. 28, 2012) forms the basic application, which is an undisclosed application. The composition of the band sealing solution is ethanol: 59.9% by weight, shellac: 37.0% by weight, water: 1.6% by weight, and surfactant (sorbitan fatty acid aster and glycerin fatty acid ester) 1.5% by weight.
(§1) These capsule formulations are wrapped in wire to prevent the capsule formulations from floating up, and submerged in the first liquid (pH1.2 liquid) in the Japanese Pharmacopoeia which is maintained at 37° to simulate the gastric acid inside a living organism.
The experiment was carried out with the same conditions used in example 1 (amount of oil, measurement conditions, measurement time, and the like), and the effect on acid resistance when another oil or surfactant is enclosed in the capsule was examined. In this example, the following criteria were determined based on the color of the fine litmus powder dissolved or dispersed in oil enclosed in a capsule.
as §1, with “were” for “are”, “Pharmacopoeia” for “Pharmacopoeia which is”, “organism. The color of the liquid in the capsule 120 minutes after submersion is shown (see FIG. 4).” for “organism.”
It should be noted that because the four oils, DHA, rice germ oil, vitamin E, and vitamin A, are light yellow to dark green, visually confirming the change of the fine litmus powder from blue to red due to acid seeping into oil within the capsule was difficult. Therefore, the color was confirmed by enlarging the litmus particles dispersed within the oil from outside the capsule using a microscope. The determination criteria for this was the same as described above (see FIG. 5).

Molecule | liquid color / acidification inside the capsule (in words)
Vitamin A | the interior of the capsule did not become acidic
Sorbitan fatty acid ester | the entire inside of the capsule turned red
Glycerin fatty acid ester | the entire inside of the capsule turned red
OCC(O)CO [Glycerin, reference compound] | the entire inside of the capsule turned red

same assay, conditions: after 20 minutes in JP first liquid pH1.2, 37°; Example 1

Molecule | liquid color in the capsule
OCC(O)CO [Glycerin, reference compound] | the entire inside of the capsule turned red

same assay, conditions: colour of litmus powder in the fill of a DRcaps capsule, 120 minutes after submersion in JP first liquid pH1.2, 37°, n=3

Molecule | Result (color)
Vitamin A | ++
Sorbitan fatty acid ester | −
Glycerin fatty acid ester | −
OCC(O)CO [Glycerin, reference compound] | −

assay: not given; details: cited from earlier work

Molecule | Specific Gravity (25° C.)
Vitamin A | 0.92
Sorbitan fatty acid ester | 0.95
Glycerin fatty acid ester | 1.02
OCC(O)CO [Glycerin, reference compound] | 1.264
